Measured values reported in PubChem BioAssay AID588681 (The Scripps Research Institute Molecular Screening Center, 2011).
Calls of active or inactive are those of the source.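 How the source made its calls: active means half-maximal IDE activation concentration EC50 of 10 µM or lower; inactive means EC50 above 10 µM.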

Molecular target: Insulin-degrading enzyme (Homo sapiens) (UniProt P14735)
Experiment: recombinant IDE activation, cell-free – biochemical, fluorescence polarization, counter-screen for IDE activator project, dose response (AID 588681)
Settings: FAbetaB cleavage

Sequence of Insulin-degrading enzyme (Homo sapiens) (P14735 whole entry, looked up): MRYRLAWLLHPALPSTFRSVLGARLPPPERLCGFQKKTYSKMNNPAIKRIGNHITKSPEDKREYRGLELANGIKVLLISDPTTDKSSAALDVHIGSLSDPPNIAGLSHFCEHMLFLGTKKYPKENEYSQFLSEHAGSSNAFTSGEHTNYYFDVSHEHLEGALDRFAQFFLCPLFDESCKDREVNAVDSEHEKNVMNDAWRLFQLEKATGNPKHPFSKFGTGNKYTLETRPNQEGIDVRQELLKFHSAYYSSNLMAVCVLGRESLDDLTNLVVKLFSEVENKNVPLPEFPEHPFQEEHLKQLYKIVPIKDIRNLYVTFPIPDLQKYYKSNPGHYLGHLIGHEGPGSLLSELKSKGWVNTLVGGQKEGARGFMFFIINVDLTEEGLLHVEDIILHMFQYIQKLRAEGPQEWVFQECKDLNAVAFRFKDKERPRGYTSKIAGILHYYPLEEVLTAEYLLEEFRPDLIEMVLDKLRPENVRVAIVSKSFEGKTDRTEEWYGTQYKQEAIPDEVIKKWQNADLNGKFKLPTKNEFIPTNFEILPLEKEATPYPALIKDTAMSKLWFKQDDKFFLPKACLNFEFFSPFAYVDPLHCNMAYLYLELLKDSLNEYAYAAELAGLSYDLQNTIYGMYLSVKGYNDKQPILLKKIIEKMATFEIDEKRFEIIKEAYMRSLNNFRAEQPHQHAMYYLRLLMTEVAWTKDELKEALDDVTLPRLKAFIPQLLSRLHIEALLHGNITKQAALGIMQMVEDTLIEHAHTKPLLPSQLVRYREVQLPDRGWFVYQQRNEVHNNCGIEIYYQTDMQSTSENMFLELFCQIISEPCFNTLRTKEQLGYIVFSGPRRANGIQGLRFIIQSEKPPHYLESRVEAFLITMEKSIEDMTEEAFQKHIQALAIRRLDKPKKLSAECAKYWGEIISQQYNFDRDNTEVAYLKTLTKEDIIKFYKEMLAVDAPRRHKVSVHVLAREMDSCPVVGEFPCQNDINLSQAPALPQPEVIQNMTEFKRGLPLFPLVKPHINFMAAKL

Compound | EC50
C#CCOCCOCCOCCNc1nc(N2CCN(C(=O)CCCCCCCCCCNC(=O)[C@H](CCCCN)n3cc(CCO)nn3)CC2)nc(N2CCN(C(=O)CCCCCCCCCCNC(=O)[C@H](CCCN=C(N)N)n3cc(C[C@@H](C)CC)nn3)CC2)n1 | 7.08 µM
C#CCOCCOCCOCCNc1nc(N2CCN(C(=O)CCCCCCCCCCNC(=O)[C@H]([C@@H](C)CC)n3cc(CCCCCN)nn3)CC2)nc(N2CCN(C(=O)CCCCCCCCCCNC(=O)[C@H]([C@@H](C)CC)n3cc(CCCCN=C(N)N)nn3)CC2)n1 | 2.32 µM
C#CCOCCOCCOCCNc1nc(N2CCN(C(=O)CCCCCCCCCCNC(=O)Cn3cc(CCCCCN)nn3)CC2)nc(N2CCN(C(=O)CCCCCCCCCCNC(=O)[C@H]([C@@H](C)CC)n3cc(CCCCCN)nn3)CC2)n1 | 8.55 µM
C#CCOCCOCCOCCNc1nc(N2CCN(C(=O)CCCCCCCCCCNC(=O)Cn3cc(C[C@@H](C)O)nn3)CC2)nc(N2CCN(C(=O)CCCCCCCCCCNC(=O)[C@H](CCCN=C(N)N)n3cc(C[C@@H](C)CC)nn3)CC2)n1 | 6.55 µM
C#CCOCCOCCOCCNc1nc(N2CCN(C(=O)CCCCCCCCCCNC(=O)Cn3cc(CCCCCN)nn3)CC2)nc(N2CCN(C(=O)CCCCCCCCCCNC(=O)Cn3cc(C[C@@H](C)O)nn3)CC2)n1 | > 54.7 µM (inactive)

Further lines, results first:

EC50 | Compound
inactive | C#CCOCCOCCOCCNc1nc(N2CCN(C(=O)CCCCCCCCCCNC(=O)Cn3cc(CCCCCN)nn3)CC2)nc(N2CCN(C(=O)CCCCCCCCCCNC(=O)[C@H](CO)n3cc(CCCSC)nn3)CC2)n1
inactive | C#CCOCCOCCOCCNc1nc(N2CCN(C(=O)CCCCCCCCCCNC(=O)[C@@H](CCSC)n3cc(CCO)nn3)CC2)nc(N2CCN(C(=O)CCCCCCCCCCNC(=O)[C@H](CO)n3cc(CCCCCN)nn3)CC2)n1
> 54.7 µM (inactive) | C#CCOCCOCCOCCNc1nc(N2CCN(C(=O)CCCCCCCCCCNC(=O)[C@H](CO)n3cc(CCCSC)nn3)CC2)nc(N2CCN(C(=O)CCCCCCCCCCNC(=O)[C@H](CCCCN)n3cc(CCO)nn3)CC2)n1
